For experiment [1], the target named is T1, Bromodomain-containing protein 2 (Homo sapiens, UniProt P25440). Briefly: Binding affinity to human partial length BRD2 bromodomain 1 long isoform (K71 to N194 residues) expressed in bacterial expression system by BROMOscan assay.
For experiment [2], the system named is KNS-62. Briefly: Cytotoxicity against human KNS-62 cells measured after 8 days. The format is functional, cell-based. Conditions: KNS-62, 192 h.
Experiment [3] in a line: Cytotoxicity against human NCI-H1869 cells measured after 8 days. The format is functional, cell-based. The following applies: NCI-H1869, 192 h.
For experiment [4], the system named is NCI-H2347. Nature of the experiment: Cytotoxicity against human NCI-H2347 cells measured after 8 days. The format is functional, cell-based. The following applies: NCI-H2347, 192 h.
In experiment [5] the test system is CAMA-1. Briefly: Cytotoxicity against human CAMA-1 cells measured after 8 days. The format is functional, cell-based. The following applies: CAMA-1, 192 h.
The subject of experiment [6] is OCI-LY19. Briefly: Cytotoxicity against human OCILY19 cells measured after 8 days. The format is functional, cell-based. Conditions: OCI-LY19, 192 h.
The target of experiment [7] is High affinity nerve growth factor receptor (Homo sapiens) (UniProt P04629). Nature of the experiment: Inhibition of TrkA (unknown origin) at 1 uM relative to control.
Experiment [8] has as its system EPLC-272H. Briefly: Cytotoxicity against human EPLC-272H cells measured after 8 days. The format is functional, cell-based. The following applies: 192 h.
Experiment [9] has as its system JIMT-1. Briefly: Cytotoxicity against human JIMT-1 cells measured after 8 days. Conditions: JIMT-1, 192 h. The format is functional, cell-based.
Experiment [10] has as its system U-698-M. Briefly: Cytotoxicity against human U-698-M cells measured after 8 days. The following applies: 192 h. The format is functional, cell-based.
In experiment [11] the target is Glycogen synthase kinase-3 beta (Homo sapiens) (UniProt P49841). Briefly: Inhibition of GSK3beta (unknown origin) at 1 uM relative to control.
Experiment [12] has as its target T2, Bromodomain-containing protein 7 (Homo sapiens, UniProt Q9NPI1).
T2 sequence (Q9NPI1 whole entry): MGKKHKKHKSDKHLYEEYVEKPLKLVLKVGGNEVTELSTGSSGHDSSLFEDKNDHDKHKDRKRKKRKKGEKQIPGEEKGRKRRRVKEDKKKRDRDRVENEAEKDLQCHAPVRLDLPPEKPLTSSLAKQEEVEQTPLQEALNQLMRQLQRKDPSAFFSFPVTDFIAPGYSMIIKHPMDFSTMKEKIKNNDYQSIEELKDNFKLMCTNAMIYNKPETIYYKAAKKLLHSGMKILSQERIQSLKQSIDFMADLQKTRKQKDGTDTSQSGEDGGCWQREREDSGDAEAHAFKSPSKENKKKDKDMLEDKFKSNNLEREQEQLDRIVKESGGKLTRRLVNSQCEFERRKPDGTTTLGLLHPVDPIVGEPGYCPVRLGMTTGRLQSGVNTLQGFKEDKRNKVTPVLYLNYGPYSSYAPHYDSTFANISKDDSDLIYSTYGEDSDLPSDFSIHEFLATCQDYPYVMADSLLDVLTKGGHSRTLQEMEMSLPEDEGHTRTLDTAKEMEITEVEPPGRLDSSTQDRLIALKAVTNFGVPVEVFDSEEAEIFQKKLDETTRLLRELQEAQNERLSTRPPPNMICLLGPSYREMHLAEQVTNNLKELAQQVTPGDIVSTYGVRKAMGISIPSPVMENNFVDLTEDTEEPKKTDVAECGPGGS
Briefly: Binding affinity to human partial length BRD7 (L125 to R254 residues) expressed in mammalian expression system by BROMOscan assay.

The test system of experiment [13] is JeKo-1. Briefly: Cytotoxicity against human JeKo-1 cells measured after 8 days. The format is functional, cell-based. The following applies: JeKo-1, 192 h.
Experiment [14] concerns A549. Nature of the experiment: Cytotoxicity against human A549 cells measured after 8 days. The format is functional, cell-based. Conditions: A549, 192 h.
For experiment [15], the system named is UACC-62. Briefly: Cytotoxicity against human UACC-62 cells measured after 8 days. The following applies: UACC-62, 192 h. The format is functional, cell-based.
For experiment [16], the system named is SW1573. Briefly: Cytotoxicity against human SW1573 cells measured after 8 days. Conditions: SW1573, 192 h. The format is functional, cell-based.
Experiment [17] has as its target T1, Bromodomain-containing protein 2. Briefly: Binding affinity to human partial length BRD2 bromodomain 2 isoform 1 (E348 to D455 residues) expressed in bacterial expression system by BROMOscan assay.
For experiment [18], the system named is PA-1. Briefly: Cytotoxicity against human PA-1 cells measured after 8 days. The format is functional, cell-based. The following applies: PA-1, 192 h.
Experiment [19] has as its target Receptor-interacting serine/threonine-protein kinase 2 (Homo sapiens) (UniProt O43353). Nature of the experiment: Inhibition of RIPK2 (unknown origin) at 1 uM relative to control.
Experiment [20] is described as follows: Cytotoxicity against human SW527 cells measured after 8 days. The format is functional, cell-based. The following applies: SW527, 192 h.
In experiment [21] the test system is Ramos. Briefly: Cytotoxicity against human Ramos cells measured after 8 days. The format is functional, cell-based. The following applies: 192 h.
Experiment [22] deals with T3, Myosin light chain kinase (Homo sapiens) (UniProt Q32MK0).
T3 sequence (whole entry): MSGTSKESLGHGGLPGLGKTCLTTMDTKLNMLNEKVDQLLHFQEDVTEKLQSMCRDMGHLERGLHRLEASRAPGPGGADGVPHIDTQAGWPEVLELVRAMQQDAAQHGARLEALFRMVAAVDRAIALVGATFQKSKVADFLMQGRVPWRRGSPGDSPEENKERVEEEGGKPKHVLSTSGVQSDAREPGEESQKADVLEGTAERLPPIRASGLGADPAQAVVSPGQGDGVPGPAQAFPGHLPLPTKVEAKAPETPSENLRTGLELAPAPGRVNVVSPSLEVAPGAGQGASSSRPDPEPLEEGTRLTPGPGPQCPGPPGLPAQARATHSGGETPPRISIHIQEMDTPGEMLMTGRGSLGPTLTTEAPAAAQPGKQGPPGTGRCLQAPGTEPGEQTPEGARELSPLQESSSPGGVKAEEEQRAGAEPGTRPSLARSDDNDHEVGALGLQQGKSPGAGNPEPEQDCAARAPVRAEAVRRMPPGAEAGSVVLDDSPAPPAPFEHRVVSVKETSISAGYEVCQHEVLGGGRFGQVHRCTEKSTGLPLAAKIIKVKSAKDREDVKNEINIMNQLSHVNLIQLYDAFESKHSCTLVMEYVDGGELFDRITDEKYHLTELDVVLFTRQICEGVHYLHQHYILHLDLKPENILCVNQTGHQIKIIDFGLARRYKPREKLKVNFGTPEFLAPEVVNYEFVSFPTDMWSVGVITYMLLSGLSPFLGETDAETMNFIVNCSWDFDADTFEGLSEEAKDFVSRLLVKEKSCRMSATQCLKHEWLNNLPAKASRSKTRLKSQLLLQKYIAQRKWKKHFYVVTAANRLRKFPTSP
Nature of the experiment: Inhibition of MYLK3 (unknown origin) at 1 uM relative to control.

Experiment [23] relates to Calu-3. Briefly: Cytotoxicity against human Calu-3 cells measured after 8 days. The format is functional, cell-based. Conditions: Calu-3, 192 h.
Experiment [24] concerns NCI-H28. Briefly: Cytotoxicity against human NCI-H28 cells measured after 8 days. The format is functional, cell-based. The following applies: NCI-H28, 192 h.
Experiment [25] addresses Cyclin-dependent kinase 2/cyclin A (Homo sapiens) (UniProt P24941+P20248+P78396). Nature of the experiment: Inhibition of CDK2/cyclin A (unknown origin) at 1 uM relative to control. The format is protein-complex assay.
Experiment [26] deals with Kappa-type opioid receptor (Homo sapiens) (UniProt P41145). Briefly: Displacement of [3H]U69593 from human kappa receptor at 10 uM after 60 mins by scintillation counting analysis relative to control. A general note: In a radioligand displacement assay an active substance lowers the binding of a labelled ligand.
Experiment [27] has as its system EOL1. Nature of the experiment: Cytotoxicity against human EOL1 cells measured after 8 days. The following applies: EOL1, 192 h. The format is functional, cell-based.

SMILES strings stand for the structures.

Chain of Glycogen synthase kinase-3 beta (Homo sapiens) (P49841 whole entry, looked up): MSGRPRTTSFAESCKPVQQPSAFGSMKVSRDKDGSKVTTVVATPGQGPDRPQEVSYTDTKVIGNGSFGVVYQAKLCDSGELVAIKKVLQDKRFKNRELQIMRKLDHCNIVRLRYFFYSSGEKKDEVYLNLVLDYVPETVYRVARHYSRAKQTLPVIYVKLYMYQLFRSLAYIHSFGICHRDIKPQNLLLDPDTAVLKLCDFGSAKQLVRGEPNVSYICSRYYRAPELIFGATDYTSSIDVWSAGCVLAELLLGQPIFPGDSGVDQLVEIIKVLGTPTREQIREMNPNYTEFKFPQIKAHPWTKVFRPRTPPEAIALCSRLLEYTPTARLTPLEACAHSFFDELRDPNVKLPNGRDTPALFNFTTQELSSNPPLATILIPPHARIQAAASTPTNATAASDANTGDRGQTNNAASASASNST
T1 sequence (P25440 whole entry, the tested form may be a part, canonical isoform): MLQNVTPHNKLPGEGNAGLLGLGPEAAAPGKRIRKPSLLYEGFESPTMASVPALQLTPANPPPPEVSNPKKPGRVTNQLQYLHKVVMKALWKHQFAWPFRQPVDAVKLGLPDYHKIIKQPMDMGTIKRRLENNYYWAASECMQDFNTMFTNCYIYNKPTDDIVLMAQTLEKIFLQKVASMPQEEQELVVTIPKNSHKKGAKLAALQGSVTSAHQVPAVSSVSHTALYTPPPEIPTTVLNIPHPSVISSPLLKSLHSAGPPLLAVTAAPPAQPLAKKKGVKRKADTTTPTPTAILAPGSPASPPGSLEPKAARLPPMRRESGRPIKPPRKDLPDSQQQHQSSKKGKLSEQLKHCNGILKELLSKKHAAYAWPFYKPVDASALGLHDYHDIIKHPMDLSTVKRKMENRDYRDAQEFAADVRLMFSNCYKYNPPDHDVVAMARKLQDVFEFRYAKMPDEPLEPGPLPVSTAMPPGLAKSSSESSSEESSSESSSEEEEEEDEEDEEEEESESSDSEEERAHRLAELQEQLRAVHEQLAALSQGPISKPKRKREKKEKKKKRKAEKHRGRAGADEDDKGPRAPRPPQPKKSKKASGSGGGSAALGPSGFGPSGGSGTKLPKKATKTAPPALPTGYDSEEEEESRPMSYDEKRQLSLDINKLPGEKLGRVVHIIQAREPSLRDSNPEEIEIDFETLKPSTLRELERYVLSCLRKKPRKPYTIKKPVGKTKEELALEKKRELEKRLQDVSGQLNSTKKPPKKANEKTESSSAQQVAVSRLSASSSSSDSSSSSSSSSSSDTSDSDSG
Chain of Receptor-interacting serine/threonine-protein kinase 2 (Homo sapiens) (O43353 whole entry): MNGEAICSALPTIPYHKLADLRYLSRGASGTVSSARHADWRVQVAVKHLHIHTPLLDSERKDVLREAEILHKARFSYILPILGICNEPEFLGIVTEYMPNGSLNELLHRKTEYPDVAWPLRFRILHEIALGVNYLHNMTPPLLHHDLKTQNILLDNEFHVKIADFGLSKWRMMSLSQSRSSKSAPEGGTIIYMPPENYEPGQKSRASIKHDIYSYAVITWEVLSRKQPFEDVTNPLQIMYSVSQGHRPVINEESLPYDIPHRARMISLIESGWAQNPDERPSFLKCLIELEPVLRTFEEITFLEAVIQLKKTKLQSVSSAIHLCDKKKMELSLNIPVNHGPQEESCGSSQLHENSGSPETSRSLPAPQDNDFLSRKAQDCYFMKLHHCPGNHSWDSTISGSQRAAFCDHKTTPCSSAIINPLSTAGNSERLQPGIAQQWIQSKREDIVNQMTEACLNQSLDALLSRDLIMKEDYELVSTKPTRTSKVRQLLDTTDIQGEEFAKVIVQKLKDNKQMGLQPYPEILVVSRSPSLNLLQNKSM
Chain of High affinity nerve growth factor receptor (Homo sapiens) (P04629 33-796 limits assumed): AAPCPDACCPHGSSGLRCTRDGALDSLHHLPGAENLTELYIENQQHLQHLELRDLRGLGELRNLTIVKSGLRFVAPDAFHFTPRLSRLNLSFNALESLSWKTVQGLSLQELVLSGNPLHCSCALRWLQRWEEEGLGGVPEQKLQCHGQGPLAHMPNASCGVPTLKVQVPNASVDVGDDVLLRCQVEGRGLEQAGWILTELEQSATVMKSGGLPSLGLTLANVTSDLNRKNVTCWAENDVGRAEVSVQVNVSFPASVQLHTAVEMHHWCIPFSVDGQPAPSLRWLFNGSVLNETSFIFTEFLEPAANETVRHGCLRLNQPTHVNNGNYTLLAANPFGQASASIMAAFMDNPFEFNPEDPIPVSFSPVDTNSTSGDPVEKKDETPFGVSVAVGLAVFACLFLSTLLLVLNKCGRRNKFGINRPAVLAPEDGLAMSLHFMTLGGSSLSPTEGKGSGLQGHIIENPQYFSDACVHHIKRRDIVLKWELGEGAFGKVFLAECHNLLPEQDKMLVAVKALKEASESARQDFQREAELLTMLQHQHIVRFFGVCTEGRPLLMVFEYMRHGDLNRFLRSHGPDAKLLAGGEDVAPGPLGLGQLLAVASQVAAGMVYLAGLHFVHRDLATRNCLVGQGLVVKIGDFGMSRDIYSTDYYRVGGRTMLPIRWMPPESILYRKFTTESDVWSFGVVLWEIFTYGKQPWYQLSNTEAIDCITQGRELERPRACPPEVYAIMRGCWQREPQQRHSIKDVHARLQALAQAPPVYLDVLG
Chain of Kappa-type opioid receptor (Homo sapiens) (P41145 whole entry): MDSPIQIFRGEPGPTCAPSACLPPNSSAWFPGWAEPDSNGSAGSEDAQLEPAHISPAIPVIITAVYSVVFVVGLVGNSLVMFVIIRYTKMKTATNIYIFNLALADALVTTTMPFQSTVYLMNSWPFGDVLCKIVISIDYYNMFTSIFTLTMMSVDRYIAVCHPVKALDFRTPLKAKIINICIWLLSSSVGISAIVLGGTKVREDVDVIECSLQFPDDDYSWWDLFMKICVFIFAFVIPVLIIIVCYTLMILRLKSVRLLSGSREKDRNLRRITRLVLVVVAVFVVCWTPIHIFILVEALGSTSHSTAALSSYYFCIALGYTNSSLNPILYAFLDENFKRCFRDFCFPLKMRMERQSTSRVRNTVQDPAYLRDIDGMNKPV

As to `C/C=C/Cn1cc(-c2ccc(C(C)(C)O)cc2OC)c2cc[nH]c2c1=O`, the Kd turned out to be 2.7 µM in experiment [1], 0.34 µM in experiment [12] and 3.3 µM in experiment [17]. For the same molecule, the IC50 in [2] was 14.7 µM; in experiment [3] it was 20 µM; in experiment [4], 20 µM; in experiment [5] it was 20 µM; in experiment [6], 14.9 µM; in experiment [8], 20 µM. Moreover, the IC50 was found to be 20 µM in [9]; 20 µM in experiment [10]; 10.8 µM in experiment [13]; 20 µM in experiment [14]; 20 µM in experiment [15]; 20 µM in [16]. Moreover, the IC50 in experiment [18] worked out at 16.4 µM; in experiment [20], 20 µM; in [21], 20 µM; in experiment [23] it was 20 µM; in experiment [24], 20 µM; in [27], 3.3 µM. Besides, the inhibition in [7] is 12.5%; in [11], 3.5%; in [19], -0.5%; in [22], 2%; in experiment [25], 1%. The Activity in [26] is -1%.
Consider `C/C=C/Cn1cc(-c2ccc(C(=O)N3CCOCC3)cc2)c2cc[nH]c2c1=O`, for which the dissociation constant Kd in experiment [1] was 4 µM; in [12], 0.2 µM; in experiment [17], 4.3 µM. Moreover, the IC50 in experiment [2], in experiment [3], in [4], in experiment [5], in [6] and in experiment [8] was 20 µM each time. Besides, the IC50 in [9] was determined as 20 µM; in experiment [10], 20 µM; in experiment [13], 9.95 µM; in experiment [14], 20 µM; in experiment [15], 20 µM; in [16], 20 µM. For the same molecule, the IC50 came out at 20 µM in [18]; 20 µM in experiment [20]; 20 µM in [21]; 20 µM in [23]; 20 µM in experiment [24]; 0.95 µM in experiment [27]. Also, the inhibition in experiment [7] is 21.4%; in experiment [11], -2%; in experiment [19] it was -4.6%; in experiment [22], 1.4%; in [25], 1.6%. The Activity in [26] was found to be 6%.
On to `C/C=C/Cn1cc(-c2cc(OC)c(C(=O)N3CCOCC3)cc2OC)c2cc(C)[nH]c2c1=O`, for which the Kd is greater than 10 µM in experiment [1], 0.11 µM in experiment [12] and greater than 10 µM in experiment [17]. Besides, the IC50 in experiment [2], in [3], in experiment [4], in experiment [5], in experiment [6] and in experiment [8] was 2 µM throughout. Also, the IC50 in [9], in experiment [10], in [13], in experiment [14], in experiment [15] and in experiment [16] was 2 µM each time. Besides, the IC50 is 2 µM in experiment [18]; 2 µM in [20]; 2 µM in experiment [21]; 2 µM in [23]; 2 µM in [24]; 1.34 µM in [27]. Further, the inhibition in experiment [7] is 12%; in experiment [11], 2.5%; in experiment [19] it was -1.5%; in experiment [22], 5%; in experiment [25], 0%. In addition, in experiment [26], the Activity is 8%.
As for `C/C=C/Cn1cc(-c2cc(OC)c(C(C)(C)O)cc2OC)c2cc(C)[nH]c2c1=O`, the Kd in experiment [1] is greater than 10 µM; in [12] it was 0.52 µM; in experiment [17], greater than 10 µM.

By Kd is commonly meant a measure of binding affinity in units of concentration. A low value points to higher affinity. Broadly, the IC50 is the concentration that inhibits the measured activity by half. As usually defined, the inhibition is the change of the read-out against control, counted positive when it falls.

(Values after ChEMBL document CHEMBL5260810, “Inhibition of bromodomain-containing protein 9 for the prevention of epigenetically-defined drug resistance” (Bioorg Med Chem Lett, 2017).)
